What was measured:
HBV = assay: AAV/HBV mouse model, anti-hepatitis B virus efficacy in vivo (serum/liver HBV DNA, serum HBV RNA); design: species or system C57BL/6 mice
Method: 5-week-old male C57BL/6 mice without specific pathogen level, purchased from Shanghai Slack Laboratory Animal Co., Ltd.
Compound 1 was added with an appropriate amount of the above-mentioned solvent, and a uniform particle suspension was obtained after vortexing, and the preparation concentration was 1.0, 3.0 and 10.0 mg/mL. Store at 4° C. until used. Compound 1 is calculated according to the salt coefficient of 1.0 and the purity of 100%.
Tenofovir disoproxil (TDF) was purchased from Shanghai Panhong Chemical Technology Co., Ltd. Weigh an appropriate amount of TDF and dissolve it in physiological saline to prepare a 1 mg/mL mother liquor, vortex until TDF is fully dissolved, dispense into 1 mL size and store at −20° C. Take 1 mL of mother liquor before each administration, and dilute the working solution 10 times to 0.1 mg/mL with normal saline for the day's administration.
rAAV8-1.3HBV (Type D, ayw) was purchased from Beijing Wujiahe Institute of Molecular Medicine, batch number x2018032301, 1×10^12 viral genome (v.g.)/mL. Dilute with sterile PBS to 5×10^11 v.g./mL before the experiment. Each mouse was injected with 200 μL, that is, each mouse was injected with 1×10^11 v.g.
AAV/HBV injection: rAAV8-1.3HBV is pre-prepared with sterile PBS to a concentration of 1×10^11 v.g./200 μL solution before injection.
Infection level detection: On days 14 and 21 after virus injection, about 120 μL of blood was collected from the submandibular vein for all infected mice to collect serum. After the whole blood was incubated in a 37° C. incubator for 30 minutes, the blood was centrifuged at 13,200×g for 3 minutes at 4° C. to collect about 30 μL of serum. The serum is stored at −80° C. for the detection of HBV DNA, HBeAg and HBsAg.
Grouping: On the 28th day after virus injection, according to the levels of HBV DNA, HBsAg and HBeAg in serum samples on the 14th and 21st days after virus injection, and the body weight of the mice.
Definition of experimental days: the day of the first dosing is set to day 0 of the experiment.
Serum sample preparation: After the blood sample was incubated at 37° C. for about 30 minutes, centrifuged at 4° C., 13,200 g for 3 minutes, and the separated supernatant was quickly frozen in dry ice.
Blood was collected from the heart to collect serum for HBV DNA detection and detection of HBV RNA levels in groups 1 and 4.
3. Quantitative PCR detection of HBV DNA content in mouse serum and liver:
Data analysis: The data is expressed as the average value standard error of each group of samples. Unless otherwise specified, groups 1-6: n=8. Use Student's t test for statistical analysis.

HBsAg = assay: Single agent anti-HBV activity, HBsAg in supernatant by ELISA, HepG2.2.15 cells; assay type: cell-based; details: Hepatitis B virus, HepG2.2.15, 192 h, read-out: HBsAg EC50
Method: Cell line: HepG2.2.15 cells are constructed and provided by WuXi AppTec. The cell culture medium is DMEM/F12 medium supplemented with 2% fetal bovine serum, 2 mM glutamine, 1×non-essential amino acids, 100 U/mL penicillin and 100 µg/mL streptomycin.
2.1.1 On the first day, HepG2.2.15 cells were seeded into a 96-well cell culture plate at a density of 60,000 cells/well, and then the cells were cultured overnight at 5% CO2 and 37° C. On the second day, the compound 1 and the compound of formula (IIb) and the compound of formula (IIIb) were diluted and added to a 96-well plate. Each combination was a three-fold plate. The cells were cultured under 5% CO2 and 37° C. for 3 days. On the 5th day, a new culture medium containing the compound was replaced, and the supernatant was collected on the 8th day. The HBsAg in the supernatant was detected by ELISA, and the DNA in the supernatant was extracted at the same time, and the content of HBV DNA in the supernatant was detected by quantitative PCR. After collecting the cell supernatant, add CellTiter-Glo to detect cell viability.

[1] = 100 mpk BID, after 28 days of dosage, vs solvent group

Cc1cc2n(c1)S(=O)(=O)c1ccc(C(=O)NCC[C@H]3COCCO3)cc1NC2=O [Compound 1]
serum HBV DNA content (HBV; 10 mpk BID (Group 2), after 7 days of dosage): remained stable after 7 days of dosage | HBV DNA content in the liver (HBV; 10 mpk BID, after 28 days of dosage, vs solvent group): decreased | serum HBV DNA content (HBV; 30 mpk BID, after 7 days of dosage): remained stable after 7 days of dosage | HBV DNA content in the liver (HBV; 30 mpk BID, after 28 days of dosage, vs solvent group): decreased | serum HBV DNA content (HBV; 100 mpk BID, 7-28 days after dosage, vs solvent group, p<0.01): significantly lower than that in the solvent group | HBV DNA content in the liver (HBV; [1]): decreased | HBV RNA content in the serum (HBV; [1]): decreased | mouse serum and liver HBV DNA (HBV; compared with the solvent control group): significantly reduced | serum HBV DNA content, trend over doses (HBV; low (10 mpk), medium (30 mpk), high (100 mpk) dose groups BID vs solvent group, after 3 days of dosage): dose-dependent trend | EC50 (HBsAg): > 1 µM
